Data reported in patent publication US6914045B2, “Glycopeptide antibiotics” (Wyeth Holdings Corporation, priority 2001, dated 2005).
In brackets after ≈: the same amount, converted by molar mass.

How the values were obtained:
Assay in all cases: in vitro antibacterial evaluation, MIC by broth dilution
Assay type in all cases: cell-based
[1] = system: Staphylococcus sp.; details: broth dilution, 18 hours at 35° C.; for MIC Staphylococcus aureus (GC 1131): strain GC 1131
Procedure, shortened: (§1)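 Step 1: dilute antibiotic across 64-0.06 μg/mL in Muller-Hinton II […]. Step 2: inoculate at 5×10^5 CFU/mL.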

[2] = system: Enterococcus sp.; details: broth dilution, 18 hours at 35° C.
Procedure, shortened: as §1

[3] = system: Streptococcus sp.; details: broth dilution, 18 hours at 35° C.
Procedure, shortened: as §1

[4] = system: Escherichia coli
Procedure, shortened: as §1

CC(c1ccccc1)C1NC(=O)CNC(=O)C(CO)NC(=O)C(C(O)C2CNC(=N)N2C2OC(CO)C(O)C(O)C2O)NC(=O)C(C(O)C2CNC(=N)N2)NC(=O)C(Cc2ccc(OC3OC(CO)C(OC4OC5COC(c6ccc7c(c6)OCCO7)OC5C(O)C4O)C(O)C3O)cc2)NC1=O (stereo not drawn) [Example 149]
MIC Staphylococcus aureus (GC 1131) ([1]; inoculum 5×10^5 CFU/mL): 2 µg/mL (≈ 1.39 µM) | MIC Staphylococcus aureus (ATCC 29213) ([1]; strain ATCC 29213): 2 µg/mL (≈ 1.39 µM) | MIC Staphylococcus aureus (GC 1131) [1]: 2 µg/mL (≈ 1.39 µM) | MIC Staphylococcus aureus (GC 3051) ([1]; strain GC 3051): 2 µg/mL (≈ 1.39 µM) | MIC Staphylococcus aureus (GC 3053) ([1]; strain GC 3053): 4 µg/mL (≈ 2.78 µM) | MIC Staphylococcus aureus (GC 4541) ([1]; strain GC 4541): 2 µg/mL (≈ 1.39 µM) | MIC Staphylococcus aureus (GC 4542) ([1]; strain GC 4542): 2 µg/mL (≈ 1.39 µM) | MIC Staphylococcus aureus-SMITH (GC 4543) ([1]; strain GC 4543): 2 µg/mL (≈ 1.39 µM) | MIC Staphylococcus aureus (GC 4544) ([1]; strain GC 4544): 2 µg/mL (≈ 1.39 µM) | MIC Staphylococcus aureus (GC 4545) ([1]; strain GC 4545): 2 µg/mL (≈ 1.39 µM) | MIC Staphylococcus haemolyticus (GC 4546) ([1]; strain GC 4546): 1 µg/mL (≈ 0.694 µM) | MIC Coagulase Negative Staphylococcus (GC 4547) ([1]; strain GC 4547): 1 µg/mL (≈ 0.694 µM) | MIC Coagulase Negative Staphylococcus (GC 4548) ([1]; strain GC 4548): 1 µg/mL (≈ 0.694 µM) | MIC Coagulase Negative Staphylococcus (GC 4549) ([1]; strain GC 4549): 1 µg/mL (≈ 0.694 µM) | MIC Coagulase Negative Staphylococcus (GC 4551) ([1]; strain GC 4551): 1 µg/mL (≈ 0.694 µM) | MIC Coagulase Negative Staphylococcus (GC 6257) ([1]; strain GC 6257): 1 µg/mL (≈ 0.694 µM) | MIC Staphylococcus aureus-SMITH (GC 4543) ([1]; strain SMITH GC 4543): 2 µg/mL (≈ 1.39 µM) | MIC Enterococcus avium (GC 4558) ([2]; Enterococcus avium (GC 4558)): 8 µg/mL (≈ 5.55 µM) | MIC Enterococcus faecalis (ATCC 29212) ([2]; Enterococcus faecalis (ATCC 29212)): 8 µg/mL (≈ 5.55 µM) | MIC Enterococcus faecalis (GC 2242) ([2]; Enterococcus faecalis (GC 2242)): 8 µg/mL (≈ 5.55 µM) | MIC Enterococcus faecalis (GC 2691) ([2]; Enterococcus faecalis (GC 2691)): 8 µg/mL (≈ 5.55 µM) | MIC Enterococcus faecalis (GC 3059) ([2]; Enterococcus faecalis (GC 3059)): 8 µg/mL (≈ 5.55 µM) | MIC Enterococcus faecalis (GC 4552) ([2]; Enterococcus faecalis (GC 4552)): 8 µg/mL (≈ 5.55 µM) | MIC Enterococcus faecalis (GC 4553) ([2]; Enterococcus faecalis (GC 4553)): 8 µg/mL (≈ 5.55 µM) | MIC Enterococcus faecalis (GC 4554) ([2]; Enterococcus faecalis (GC 4554)): 8 µg/mL (≈ 5.55 µM) | MIC Enterococcus faecalis (GC 6189) ([2]; Enterococcus faecalis (GC 6189)): 8 µg/mL (≈ 5.55 µM) | MIC Enterococcus faecium (GC 2243) ([2]; Enterococcus faecium (GC 2243)): 8 µg/mL (≈ 5.55 µM) | MIC Enterococcus faecium (GC 4556) ([2]; Enterococcus faecium (GC 4556)): 8 µg/mL (≈ 5.55 µM) | MIC Enterococcus faecium (GC 4557) ([2]; Enterococcus faecium (GC 4557)): 2 µg/mL (≈ 1.39 µM) | MIC Enterococcus faecalis (ATCC 29212) ([2]; strain ATCC 29212): 8 µg/mL (≈ 5.55 µM) | MIC Enterococcus faecalis (GC 2242) ([2]; strain GC 2242): 8 µg/mL (≈ 5.55 µM) | MIC Enterococcus faecium (GC 2243) ([2]; strain GC 2243): 8 µg/mL (≈ 5.55 µM) | MIC Enterococcus faecalis (GC 2691) ([2]; strain GC 2691): 8 µg/mL (≈ 5.55 µM) | MIC Enterococcus faecalis (GC 3059) ([2]; strain GC 3059): 8 µg/mL (≈ 5.55 µM) | MIC Enterococcus faecalis (GC 4552) ([2]; strain GC 4552): 8 µg/mL (≈ 5.55 µM) | MIC Enterococcus faecalis (GC 4553) ([2]; strain GC 4553): 8 µg/mL (≈ 5.55 µM) | MIC Enterococcus faecalis (GC 4554) ([2]; strain GC 4554): 8 µg/mL (≈ 5.55 µM) | MIC Enterococcus faecium (GC 4556) ([2]; strain GC 4556): 8 µg/mL (≈ 5.55 µM) | MIC Enterococcus faecium (GC 4557) ([2]; strain GC 4557): 2 µg/mL (≈ 1.39 µM) | MIC Enterococcus avium (GC 4558) ([2]; strain GC 4558): 8 µg/mL (≈ 5.55 µM) | MIC Enterococcus faecalis (GC 6189) ([2]; strain GC 6189): 8 µg/mL (≈ 5.55 µM) | MIC Streptococcus agalactiae (GC 4564) ([3]; Streptococcus agalactiae (GC 4564)): 1 µg/mL (≈ 0.694 µM) | MIC Streptococcus pneumoniae (ATCC 6301) ([3]; Streptococcus pneumoniae (ATCC 6301)): <0.5 µg/mL | MIC Streptococcus pneumoniae (GC 1894) ([3]; Streptococcus pneumoniae (GC 1894)): <0.5 µg/mL | MIC Streptococcus pneumoniae (GC 4565) ([3]; Streptococcus pneumoniae (GC 4565)): 2 µg/mL (≈ 1.39 µM) | MIC Streptococcus pyogenes (GC 4563) ([3]; Streptococcus pyogenes (GC 4563)): <0.5 µg/mL | MIC Streptococcus pneumoniae (ATCC 6301) ([3]; strain ATCC 6301): <0.5 µg/mL | MIC Streptococcus pneumoniae (GC 1894) ([3]; strain GC 1894): <0.5 µg/mL | MIC Streptococcus pyogenes (GC 4563) ([3]; strain GC 4563): <0.5 µg/mL | MIC Streptococcus agalactiae (GC 4564) ([3]; strain GC 4564): 1 µg/mL (≈ 0.694 µM) | MIC Streptococcus pneumoniae (GC 4565) ([3]; strain GC 4565): 2 µg/mL (≈ 1.39 µM) | MIC Escherichia coli (ATCC 25922) ([4]; strain ATCC 25922, 18 hours at 35° C.): >64 µg/mL | MIC Escherichia coli (GC 4559) ([4]; strain GC 4559, 18 hours at 35° C.): 64 µg/mL (≈ 44.4 µM) | MIC Escherichia coli (GC 4560) ([4]; strain GC 4560, 18 hours at 35° C.): <0.5 µg/mL
